The values that follow come from ChEMBL document CHEMBL1134703, “Simplified catechin-gallate inhibitors of HIV-1 reverse transcriptase” (Bioorg Med Chem Lett, 2001).

pIC50: −log10 of the molar value. A value given as a limit tells only on which side of the number the result lay.

Usually pIC50 stands for the IC50 on a negative log10 scale, so that one unit is a factor of ten. A higher pIC50 goes with a low IC50.

In the test the target is Human immunodeficiency virus type 1 reverse transcriptase (Human immunodeficiency virus 1, UniProt Q72547). Description: Inhibition of polymerization in wild type HIV-1 RT with poly rC/dG12-18 template primer and [3H]dGTP.
In the case of `O=C(O[C@@H]1Cc2c(O)cc(O)cc2O[C@@H]1c1cc(O)c(O)c(O)c1)c1cc(O)c(O)c(O)c1` [EPIGALOCATECHIN GALLATE], the pIC50 was 6.14.

Regarding `O=C(OC1COc2cc(O)cc(O)c2C1)c1cccc(O)c1O` (stereo not drawn), the pIC50 is 4.43.

Compound `O=C(O[C@@H]1Cc2c(O)cc(O)cc2O[C@@H]1c1ccc(O)c(O)c1)c1cc(O)c(O)c(O)c1` [EPICATECHIN GALLATE] gave a pIC50 of 6.12.

As for `O=C(OC1COc2cc(O)cc(O)c2C1)c1cccc(O)c1` (stereo not drawn), the pIC50 is below 4.00.

Take `O=C(OC1COc2cc(O)cc(O)c2C1)c1ccccc1` (stereo not drawn): the pIC50 is below 4.00.

`O=C(OC1COc2ccccc2C1)c1ccc(O)c(O)c1O` (stereo not drawn) had a pIC50 below 4.00.

`O=C(OC1COc2cc(O)cc(O)c2C1)c1ccc(O)c(O)c1O` (stereo not drawn) showed a pIC50 of 5.42.

As to `Oc1cc(O)c2c(c1)O[C@H](c1ccc(O)c(O)c1)[C@H](O)C2` [(-)-EPICATECHIN], the pIC50 is below 4.00.

For `O=C(OC1COc2cc(O)ccc2C1)c1ccc(O)c(O)c1O` (stereo not drawn), the pIC50 was 4.44.

`O=C(OC1COc2cc(O)cc(O)c2C1)c1ccc(O)cc1O` (stereo not drawn) showed a pIC50 of 4.02.

The compound `O=C(OCCC1COc2cc(O)c(O)cc2C1)c1ccc(O)c(O)c1O` (stereo not drawn) gave a pIC50 of 4.97.

Turning to `O=C(O)c1cc(O)c(O)c(O)c1` [GALLIC ACID], the pIC50 is below 4.00.

Turning to `O=C(OC1COc2cccc(O)c2C1)c1ccc(O)c(O)c1O` (stereo not drawn), the pIC50 is 4.34.
